According to US11033547B2, “Carboxamide-pyrimidine derivatives as SHP2 antagonists” (Merck Patent GmbH, priority 2019, dated 2021):
Like-named read-outs stand apart in the source and are kept apart here.

Legend:
[1] = system: pERK level in KYSE520 cells; experiment: p-Erk cellular assay in KYSE520 (Mesoscale); type: cell-based; settings: 2 h incubation, read-out: pERK1/2 in KYSE520 IC50
[2] = molecular target: Full length SHP2 protein (Recombinant Human SHP-2) (Homo sapiens, UniProt Q06124); experiment: SHP2 biochemical assay (DiFMUP substrate, activating peptide IRSI_2pY)
Chain of Full length SHP2 protein (Recombinant Human SHP-2) (Q06124 2-593 limits assumed): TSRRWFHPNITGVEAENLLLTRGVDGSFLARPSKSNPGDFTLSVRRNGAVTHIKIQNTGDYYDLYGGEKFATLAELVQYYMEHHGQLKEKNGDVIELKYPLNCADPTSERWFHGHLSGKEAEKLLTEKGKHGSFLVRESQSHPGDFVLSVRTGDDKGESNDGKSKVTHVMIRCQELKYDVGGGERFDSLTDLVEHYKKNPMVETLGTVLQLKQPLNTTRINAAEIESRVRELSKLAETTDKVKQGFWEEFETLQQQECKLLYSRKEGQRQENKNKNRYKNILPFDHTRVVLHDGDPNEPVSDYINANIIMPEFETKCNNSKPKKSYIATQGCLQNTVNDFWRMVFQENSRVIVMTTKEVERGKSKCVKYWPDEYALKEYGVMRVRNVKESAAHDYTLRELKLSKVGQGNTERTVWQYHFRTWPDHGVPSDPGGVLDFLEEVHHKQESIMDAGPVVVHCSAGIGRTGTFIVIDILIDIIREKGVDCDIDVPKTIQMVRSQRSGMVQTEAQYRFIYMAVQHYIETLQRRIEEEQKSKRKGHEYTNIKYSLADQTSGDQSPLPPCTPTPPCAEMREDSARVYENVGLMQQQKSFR
Protocol: The inhibition of SHP2 by compounds of the invention was monitored using the surrogate substrate DiFMUP after protein activation by a peptide bearing two appropriately spaced phosphotyrosine. […] The generation of the DiFMU product by activated SHP2 was monitored through Fluorescence measurement with a PerkinElmer Envision reader.
The inhibitor dose response curves were analyzed with Genedata Screener.

[3] = system: pERK level in MDA-MB-468 cells; experiment: p-Erk cellular assay in MDA-MB-468 (Mesoscale); type: cell-based; settings: 2 h incubation, read-out: pERK1/2 in MDA-MB-468 IC50
Protocol: p-Erk Cellular Assay in MDA-MB-468 and KYSE520:
The effect of SHP2 inhibitors on pERK level was assessed using phospho-specific antibody using Mesoscale quantification platform. For measuring change in pERK levels using mesoscale, 30,000 cells of MDA MB468 and KYSE520 cells were plated in 96-well tissue culture treated plate in 175 ul volume of media. After an overnight incubation at 37° C., various SHP2 inhibitors were added in different concentration to each well maintaining duplicate wells across plates and incubated with compounds for 2 h at 37° C. followed by a wash with ice cold PBS buffer. The cells were then lysed in lysis buffer and processed and analyzed for p-ERK/ERK as per manufacturer's instructions (Mesoscale discovery, cat No. K15107D-3).

[4] = molecular target: Kv11.1 (hERG) ion channel (Homo sapiens (Human), UniProt Q12809); type: cell-based; settings: ratio of hERG Ki (patch clamp) to pERK IC50 in KYSE520
Chain of Kv11.1 (hERG) ion channel (Q12809 whole entry): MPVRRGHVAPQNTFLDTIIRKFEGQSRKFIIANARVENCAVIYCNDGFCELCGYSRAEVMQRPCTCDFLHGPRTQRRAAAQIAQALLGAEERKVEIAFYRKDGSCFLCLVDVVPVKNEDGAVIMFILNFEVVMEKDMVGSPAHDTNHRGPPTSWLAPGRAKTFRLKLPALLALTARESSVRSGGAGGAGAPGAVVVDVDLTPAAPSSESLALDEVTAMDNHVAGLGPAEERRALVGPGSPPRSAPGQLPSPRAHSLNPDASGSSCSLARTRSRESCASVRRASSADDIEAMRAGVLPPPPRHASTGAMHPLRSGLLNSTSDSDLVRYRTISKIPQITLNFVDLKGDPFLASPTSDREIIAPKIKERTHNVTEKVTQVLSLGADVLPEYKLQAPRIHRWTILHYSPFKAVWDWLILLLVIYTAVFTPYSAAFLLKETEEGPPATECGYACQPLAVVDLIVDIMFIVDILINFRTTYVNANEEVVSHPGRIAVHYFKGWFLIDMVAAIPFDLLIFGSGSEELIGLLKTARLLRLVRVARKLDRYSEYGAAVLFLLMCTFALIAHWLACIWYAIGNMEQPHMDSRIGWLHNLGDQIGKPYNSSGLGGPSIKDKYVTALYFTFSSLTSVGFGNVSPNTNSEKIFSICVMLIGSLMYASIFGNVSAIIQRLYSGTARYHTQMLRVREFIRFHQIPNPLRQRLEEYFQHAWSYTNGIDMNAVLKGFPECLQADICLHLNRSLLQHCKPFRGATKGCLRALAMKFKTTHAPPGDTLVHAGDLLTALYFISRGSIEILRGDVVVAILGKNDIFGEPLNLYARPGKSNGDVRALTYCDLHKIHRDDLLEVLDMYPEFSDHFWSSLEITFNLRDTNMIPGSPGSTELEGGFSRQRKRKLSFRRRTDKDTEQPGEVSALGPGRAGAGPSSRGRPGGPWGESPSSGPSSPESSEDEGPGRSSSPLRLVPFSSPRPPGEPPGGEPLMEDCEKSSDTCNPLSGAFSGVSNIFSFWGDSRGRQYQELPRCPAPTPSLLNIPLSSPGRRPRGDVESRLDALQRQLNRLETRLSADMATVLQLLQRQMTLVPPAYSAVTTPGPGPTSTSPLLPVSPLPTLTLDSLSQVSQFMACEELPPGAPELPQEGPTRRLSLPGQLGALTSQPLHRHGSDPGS
Protocol: Inhibition of the ion channel hErg (or Kv11.1) current causes QT interval prolongation resulting in potentially fatal ventricular tachyarrhythmia called Torsade de Pointes.
hERG ion channel activity was assessed using a patch clamp technique in stable Kv11.1 (hERG) transfected human embryonic kidney cell line (HEK293). Whole cell recordings were carried out with an automated patch clamp device Patchliner™ from Nanion Technologies, Munich following manufacturer recommendation. Different concentrations of the test compound or reference, quinidine, were applied to whole cells suspension and current was measured using a pulse pattern with fixed amplitudes.

[5] = molecular target: T1, auto-activated mutant protein SHP2 E76K (Homo sapiens (Human), UniProt Q06124, E76K); experiment: SHP2 E76K mutant biochemical assay without activating peptide; settings: no activating peptide, read-out: SHP-2 E76Z IC50 No peptide
T1 sequence (Q06124 whole entry E76K): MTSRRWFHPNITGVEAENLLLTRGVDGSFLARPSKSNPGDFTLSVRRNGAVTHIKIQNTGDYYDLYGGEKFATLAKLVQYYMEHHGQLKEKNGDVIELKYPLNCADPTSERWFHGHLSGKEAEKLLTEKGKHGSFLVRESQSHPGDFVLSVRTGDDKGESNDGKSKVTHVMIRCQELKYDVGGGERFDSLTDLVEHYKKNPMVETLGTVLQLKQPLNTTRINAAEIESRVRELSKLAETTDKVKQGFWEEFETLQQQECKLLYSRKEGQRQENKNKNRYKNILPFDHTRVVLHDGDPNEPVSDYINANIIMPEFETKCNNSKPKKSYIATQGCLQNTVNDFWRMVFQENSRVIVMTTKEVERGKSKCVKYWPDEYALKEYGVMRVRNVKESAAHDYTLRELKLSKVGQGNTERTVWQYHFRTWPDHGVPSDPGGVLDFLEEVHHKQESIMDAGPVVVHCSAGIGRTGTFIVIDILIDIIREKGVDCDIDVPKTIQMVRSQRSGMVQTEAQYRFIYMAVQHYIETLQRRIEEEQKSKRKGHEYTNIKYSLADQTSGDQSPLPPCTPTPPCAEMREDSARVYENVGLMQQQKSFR
Protocol: (§1) The inhibition of SHP2 by compounds of the invention was monitored using the surrogate substrate DiFMUP after protein activation by a peptide bearing two appropriately spaced phosphotyrosine. Full length SHP2 protein (Recombinant HumanSHP-2, E. coli derived Ser2Arg593, N-terminal 6His tag from R&D systems; […]) was incubated with activating peptide, IRSI_2pY (New England Peptide, 140 nM) and DiFMUP (molecular probes, 80 uM) at RT in buffer (HEPES pH 7.2 60 mM, DDT 5 mM, KCl 75 mM, NaCl 75 mM, EDTA 1 mM, Tween 20 0.05%) in presence of compound (10 concentrations range, top concentration 50 μM) for 60 min. The generation of the DiFMU product by activated SHP2 was monitored through Fluorescence measurement with a PerkinElmer Envision reader.
(§2) A selection of compounds has been tested in a biochemical assay using same conditions as described in example 3, but with an auto-activated mutant protein SHP2 E76K with and without the addition of the activating peptide IRSI_2pY (New England Peptide, 140 nM).

[6] = molecular target: T1, auto-activated mutant protein SHP2 E76K; experiment: SHP2 E76K mutant biochemical assay with activating peptide IRSI_2pY; settings: SHP2 E76K mutant with activating peptide IRSI_2pY 140 nM; read-out: SHP-2 E76Z IC50 peptide
Protocol: as §1, §2

[7] = DiFMUP substrate, activating peptide IRSI_2pY, 60 min at RT, read-out: SHP-2 Biochemical assay IC50

| SMILES | IC50 [1] [nM] | IC50 [2, 7] [nM] | IC50 [3] [nM] | Split between hErg and cell activity Ki(patch Clamp)/IC50 (KYSE) [4] | IC50 [5] [nM] | IC50 ([2]; wild-type SHP-2 with activating peptide, read-out: SHP-2 IC50 peptide) [nM] | IC50 [6] [nM] |
| --- | --- | --- | --- | --- | --- | --- | --- |
| CC1(N)CCN(c2nc(N)c(-c3cccc(Cl)c3Cl)c(C(N)=O)n2)CC1 [Compound No. 3, 6-Amino-2-(4-amino-4-methyl-piperidin-1-yl)-5-(2,3-dichlorophenyl)-pyrimidine-4-carboxylic Acid Amide] | 754 | 160 | 346 | >14 |  |  |  |
| NC(=O)c1nc(N2CCC3(CC2)Cc2ccccc2[C@H]3N)nc(N)c1-c1cccc(Cl)c1Cl (single isomer, unassigned) [Compound 117] |  | 1 |  | >50 | 0.5 | 0.4 | 1.1 |
